Experimental data reported in US8822692B2, “Diterpenoid derivatives endowed of biological properties” (SIGMA-TAU Industrie Farmaceutiche Riunite S.p.A., priority 2010, dated 2014).
Marks after values point to notes of the source that are not given here.

What was measured:
Assay type in all cases: in vivo, rat
[1] = system: Milan Hypertensive Rats (MHS); assay: Anti-hypertensive effect in Milan hypertensive rats (MHS), six week oral treatment; settings: for SBP / HR: oral gavage 10 μg/kg/day, six weeks; for SBP: vehicle 169 (experiment A), 164 (experiment B); for HR: vehicle 348 (experiment A), 363 (experiment B); for effect on SBP in MHS rats (in words): at the dose tested
From the text: (§1) Anti-hypertensive property of various derivatives were looked at in vivo in three animal models of hypertension (i.e., mutant α-adducin congenic rats, ouabain-hypertensive rats and Milan hypertensive rats).
Milan hypertensive rats is a rat model of genetic hypertension sustained by α-adducin mutation and increased circulating levels of endogenous ouabain (Ferrari P., et al., Hypertension: Pathophysiology, Diagnosis and Management, (Volume 1). Laragh J H and Brenner B M (Eds.), Raven Press Publishers, New York, USA, 1261-1279, (1995).
The compounds were administered by oral gavage (10 μg/kg/day) for six weeks.

[2] = system: Ouabain-Hypertensive Rats (OHR); assay: Anti-hypertensive effect in ouabain-hypertensive rats (OHR), six week oral treatment; settings: six weeks
Description: as §1
Hypertension was provoked by subcutaneous ouabain infusion (15 μg/kg/day) in normotensive rats as already described (Ferrari P., et al., J. Pharmacol. Exp. Ther., 1998, 285, 83).

[3] = system: OHR rats; assay: Urinary protein excretion and renal function in OHR rats
Description: The effect of the compound of example 4 on urinary protein excretion was investigated. Increased levels of circulating endogenous ouabain not only associate with hypertension but also may affect renal function and increase the risk of renal failure and proteinuria (Stella P., et al., J. Int. Med., 2008, 263, 274) which represent major organ complications associated to hypertension.
OHR rats were orally treated with the compound of example 4 at 0.1 μg/kg/day for 6 weeks. At the end of the treatment, rats were allocated in single metabolic cages for 24 h urine collection.
Proteinuria and urinary creatinine were measured by commercial kits (Sentinel). Rats were sacrificed and blood was collected for plasma creatinine measurement.

[4] = system: rats bearing an α-adducin mutation (NA strain); assay: Anti-hypertensive effect in mutant α-adducin congenic rats (NA), six week oral treatment; settings: six weeks; for SBP: vehicle 164.4; for HR: vehicle 412
Description: Anti-hypertensive property of various derivatives were looked at in vivo in three animal models of hypertension (i.e., mutant α-adducin congenic rats, ouabain-hypertensive rats and Milan hypertensive rats). The compound of example 4 was administered by oral gavage at various doses for six weeks to rats bearing an α-adducin mutation (NA strain). Such mutation leading to hypertension and organ complication (Bianchi G., et al., Proc. Natl. Acad. Sci., 1994, 91, 3999) was obtained by introgressing a segment of chromosome 14 containing the locus of α-adducin from Milan Hypertensive rats (MHS), having the mutant variant, into Milan Normotensive rats (MNS), carrying the wild type α-adducin variant (Tripodi G., et al., Biochem. Biophys. Res. Commun., 2004, 324, 562).

[5] = oral gavage 0.1 μg/kg/day once a day, experiment A, vehicle 173
[6] = oral gavage 0.1 μg/kg/day once a day, experiment A, vehicle 387
[7] = oral gavage 1 μg/kg/day once a day, experiment A, vehicle 173
[8] = oral gavage 1 μg/kg/day once a day, experiment A, vehicle 387

Row | Structure (SMILES) | SBP [1] | HR [1] [beats/min] | SBP [2, 5] | HR [2, 6] [beats/min] | effect on SBP in MHS rats (in words) [1] | SBP [2, 7] | HR [2, 8] [beats/min] | other results
1 | CC(C)c1ccc2c(c1)CCC1C(C)(/C=N/O[C@H]3CCNC3)CCCC21C.O=C(O)/C=C/C(=O)O (stereo partly drawn) [Example 5, (E)-15-((S)-3-Pyrrolidinyloxyimino)-13-isopropylpodocarpa-8,11,13-triene fumarate] | 155* mmHg | 367 | 154** mmHg | 390 |  |  |  | 
2 | CC(C)c1ccc2c(c1)C(=O)C[C@H]1[C@](C)(/C=N/OCCN)CCC[C@]21C.O=C(O)/C=C/C(=O)O [Example 12, (E)-15-(2-Aminoethoxyimino)-13-isopropylpodocarpa-8,11,13-triene-7-one fumarate] | 161* mmHg | 347 |  |  | significantly reduced SBP |  |  | SBP ([2]; oral gavage 10 μg/kg/day once a day, experiment B, vehicle 171): 156** mmHg; HR ([2]; oral gavage 10 μg/kg/day once a day, experiment B, vehicle 377): 380 beats/min
3 | CC(C)c1ccc2c(c1)CCC1C(C)(/C=C\CCCN)CCCC21C.O=C(O)/C=C/C(=O)O (stereo not shown) [Example 23, (Z)-15-(4-Aminobutyliden)-13-isopropylpodocarpa-8,11,13-triene fumarate] |  |  |  |  |  | 159** mmHg | 370 | 
4 | CC(C)c1ccc2c(c1)CCC1C(C)(COCCCN)CCCC21C.O=C(O)/C=C/C(=O)O (stereo not shown) [Example 27, 15-(3-Aminopropoxy)-13-isopropylpodocarpa-8,11,13-triene fumarate] | 156* mmHg | 367 |  |  | significantly reduced SBP | 156** mmHg | 390 | 
5 | CC(C)c1ccc2c(c1)CCC1C(C)(CCCCCN)CCCC21C.O=C(O)/C=C/C(=O)O (stereo not shown) [Example 25, 15-(4-Aminobutyl)-13-isopropylpodocarpa-8,11,13-triene fumarate] |  |  | 164 mmHg | 395 |  |  |  | 
6 | CC(C)c1ccc2c(c1)CCC1C(C)(/C=N/O[C@@H]3CCNC3)CCCC21C.O=C(O)/C=C/C(=O)O (stereo partly drawn) [Example 4, (E)-15-((R)-3-Pyrrolidinyloxyimino)-13-isopropylpodocarpa-8,11,13-triene fumarate] |  |  | 157** mmHg | 382 | not effective on SBP | 153** mmHg | 380 | urinary protein excretion in OHR rats (in words) ([3]; 0.1 μg/kg/day): significantly reduced the urinary protein excretion; Urinary creatinine ([3]; oral 0.1 μg/kg/day, 6 weeks, 24 h urine, OHR vehicle 33.7, saline controls 36.1): 35.6 mg/24 h; Proteinuria ([3]; oral 0.1 μg/kg/day, 6 weeks, 24 h urine, OHR vehicle 51.6 ± 5, saline controls 35.6): 42** mg/24 hr; Plasma creatinine ([3]; oral 0.1 μg/kg/day, 6 weeks, OHR vehicle 3.51, saline controls 3.1): 3.59 mg/dL; SBP ([4]; oral gavage 1 μg/kg/day): 150.6* mmHg; HR ([4]; oral gavage 1 μg/kg/day): 415 beats/min; SBP ([4]; oral gavage 10 μg/kg/day): 150.6* mmHg; HR ([4]; oral gavage 10 μg/kg/day): 425 beats/min; SBP ([4]; oral gavage 100 μg/kg/day): 147.5** mmHg; HR ([4]; oral gavage 100 μg/kg/day): 421 beats/min
7 | CC(C)c1ccc2c(c1)CCC1C(C)(C=NOC3CCNCC3)CCCC21C.O=C(O)C=CC(=O)O (stereo not shown) [Example 6, (E)-15-(4-Piperidinyloxyimino)-13-isopropylpodocarpa-8,11,13-triene fumarate] |  |  |  |  |  | 166 mmHg | 392 | 
8 | CC(N)CCCCC1(C)CCCC2(C)c3ccc(C(C)C)cc3CCC12.O=C(O)/C=C/C(=O)O (stereo not shown) [Example 26, 15-(4-Aminopentyl)-13-isopropylpodocarpa-8,11,13-triene fumarate] |  |  |  |  |  | 164 mmHg | 374 | 
